What all share (format): in vivo
The test system of one assay is Lolium perenne (LOLPE). Nature of the assay: Test 2 glasshouse assay (IF50 formulation, X-77), pre-emergence herbicidal activity. To be noted: 480 h, 250 g/ha, 20DAA, read-out: Percentage phytotoxicity LOLPE. An outline of the steps: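 Plants in soil pots were sprayed 1 day (pre-emergence) or ~12 days (post-emergence) after sowing with IF50 formulation diluted in 0.2% v/v X-77. Cool species were grown at 20/16 °C day/night, 16 h light, 65% humidity. Visual % phytotoxicity was scored at 20DAA (pre) or 15DAA (post).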

The test system of assay [1] is Setaria faberi (SETFA). The assay is described as above. To be noted: 480 h, 250 g/ha, 20DAA, read-out: Percentage phytotoxicity SETFA. An outline of the steps: (§1)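 Seeds sown in standard soil, grown 1 day (pre) or about 12 days (post) in glasshouse (warm species 24/18 °C, 16 h light, 65% humidity), then sprayed with IF50 (50 g/L active) in 0.2% v/v aqueous X-77 at rate-dependent concentration. Visual % phytotoxicity scored 20 DAA (pre) or 15 DAA (post).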

For assay [2], the system named is Panicum miliaceum (PANMI). Described as above. The following applies: 480 h, 250 g/ha, 20DAA, read-out: Percentage phytotoxicity PANMI. A digest of the protocol:
as §1

The test system of assay [3] is Brachiaria plantaginea (BRAPL). The description is as above. To be noted: Urochloa plantaginea, 480 h, 250 g/ha, 20DAA, read-out: Percentage phytotoxicity BRAPL. A digest of the protocol: as §1
The test system of assay [4] is Echinochloa crus-galli (ECHCG). The assay is described as above. To be noted: 480 h, 250 g/ha, 20DAA, read-out: Percentage phytotoxicity ECHCG. An outline of the steps:
as §1

Assay [5] concerns Setaria faberi (SETFA). As to the kind of experiment: Test 2 glasshouse assay (IF50 formulation, X-77), post-emergence herbicidal activity. The following applies: 360 h, 15 DAA, visual score, read-out: Post-emergence herbicidal activity (percentage phytotoxicity) SETFA; for pest or weed control at 125 g/ha: application rate 125 g/ha; for pest or weed control at 30 g/ha: application rate 30 g/ha. A digest of the protocol:
as §1

The test system of assay [6] is Digitaria sanguinalis (DIGSA). Described as above. To be noted: 360 h, 15 DAA, visual score, read-out: Post-emergence herbicidal activity (percentage phytotoxicity) DIGSA; for pest or weed control at 125 g/ha: application rate 125 g/ha; for pest or weed control at 30 g/ha: application rate 30 g/ha. A digest of the protocol: as §1
For assay [7], the system named is Panicum miliaceum (PANMI). The assay is described as above. To be noted: 360 h, 15 DAA, visual score, read-out: Post-emergence herbicidal activity (percentage phytotoxicity) PANMI; for pest or weed control at 125 g/ha: application rate 125 g/ha; for pest or weed control at 30 g/ha: application rate 30 g/ha. An outline of the steps:
as §1

In assay [8] the test system is Brachiaria plantaginea (BRAPL). The description is as above. To be noted: Urochloa plantaginea, 360 h, 15 DAA, visual score, read-out: Post-emergence herbicidal activity (percentage phytotoxicity) BRAPL; for pest or weed control at 125 g/ha: application rate 125 g/ha; for pest or weed control at 30 g/ha: application rate 30 g/ha. An outline of the steps: as §1
Assay [9] relates to Echinochloa crus-galli (ECHCG). The assay is described as above. To be noted: 360 h, 15 DAA, visual score, read-out: Post-emergence herbicidal activity (percentage phytotoxicity) ECHCG; for pest or weed control at 125 g/ha: application rate 125 g/ha; for pest or weed control at 30 g/ha: application rate 30 g/ha. An outline of the steps:
as §1

Assay [10] concerns Sorghum vulgare Pers. (SORVU). The assay is described as above. The following applies: Sorghum bicolor, 360 h, 15 DAA, visual score, read-out: Post-emergence herbicidal activity (percentage phytotoxicity) SORVU; for pest or weed control at 125 g/ha: application rate 125 g/ha; for pest or weed control at 30 g/ha: application rate 30 g/ha. A digest of the protocol:
as §1

Assay [11] deals with Alopecurus myosuroides (ALOMY). As to the kind of experiment: Test 1 glasshouse assay, pre-emergence herbicidal activity. To be noted: 312 h, visual evaluation after 13 days, read-out: Percentage phytotoxicity ALOMY. A digest of the protocol: (§2)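 Seeds sown in standard soil were sprayed one day after sowing with active ingredient in acetone/water (50:50) plus 0.5% Tween 20. Plants grew in a glasshouse at 24/16° C day/night, 14 h light, 65% humidity, watered twice daily; phytotoxicity was scored visually after 13 days (0–100%).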

Assay [12] has as its system Abutilon theophrasti (ABUTH). The description is as above. To be noted: 312 h, visual evaluation after 13 days, read-out: Percentage phytotoxicity ABUTH. A digest of the protocol: as §2
Assay [13] relates to Amaranthus retroflexus (AMARE). The assay is described as above. To be noted: 312 h, visual evaluation after 13 days, read-out: Percentage phytotoxicity AMARE. An outline of the steps: as §2
For assay [14], the system named is Echinochloa crus-galli (ECHCG). The assay is described as above. The following applies: 312 h, visual evaluation after 13 days, read-out: Percentage phytotoxicity ECHCG. An outline of the steps:
as §2

In the case of `C#CCC1CC(=O)C(c2c(F)cc(-c3ccc(Cl)cc3)cc2OC)C1=O` (stereo not drawn) [Compound A14], the pest or weed control at 250 g/ha in the assay on Lolium perenne (LOLPE) is 70%; in the assay with Setaria faberi (SETFA) [1], 100%; in assay [2], 100%; in assay [3], 100%; in [4], 80%; in [11], 100%. Besides, the pest or weed control at 250 g/ha was found to be 20% in [12], 90% in assay [13] and 100% in assay [14]. The pest or weed control at 125 g/ha in the assay with Setaria faberi (SETFA) [5] was determined as 90%; in [6], 100%; in [7], 60%; in assay [8] it was 30%; in assay [9] it was 100%; in assay [10], 100%.
Consider `C#CCC1CC(=O)C(c2c(Cl)cc(-c3ccc(F)c(F)c3)cc2OC)C1=O` (stereo not drawn) [Compound A13], for which the pest or weed control at 250 g/ha in the assay with Lolium perenne (LOLPE) worked out at 100%; with Setaria faberi (SETFA) [1], 100%; in assay [2], 100%; in assay [3] it was 100%; in assay [4] it was 100%; in assay [11], 90%. Also, the pest or weed control at 250 g/ha in assay [12] came to 80%; in assay [13], 100%; in assay [14], 100%. The pest or weed control at 30 g/ha in the assay on Setaria faberi (SETFA) [5] stood at 100%; in assay [6] it was 100%; in assay [7], 100%; in assay [8] it was 90%; in [9] it was 100%; in assay [10] it was 100%. For the same compound, the pest or weed control at 125 g/ha (in the assay with Setaria faberi (SETFA) [5]; in assay [6]; in assay [7]; in assay [8]; in assay [9]; in [10]) was 100% in each case.
For the compound `C#CCC1CC(=O)C(c2c(Cl)cc(-c3ccc(F)cc3)cc2OC)C1=O` (stereo not drawn) [Compound A7], the pest or weed control at 250 g/ha with Lolium perenne (LOLPE) came out at 60%; in the assay with Setaria faberi (SETFA) [1], 90%; in assay [2], 100%; in assay [3], 90%; in assay [4], 90%; with Setaria faberi (SETFA) [5] (application rate 250 g/ha), 100%. In addition, the pest or weed control at 250 g/ha in [6] (application rate 250 g/ha) turned out to be 100%; in assay [7] (application rate 250 g/ha) it was 100%; in assay [8] (application rate 250 g/ha), 100%; in assay [9] (application rate 250 g/ha) it was 100%; in [10] (application rate 250 g/ha), 100%; in assay [11], 90%. Further, the pest or weed control at 250 g/ha in assay [12] came out at 0%; in [13], 70%; in assay [14], 100%. Further, the pest or weed control at 30 g/ha stood at 90% in the assay on Setaria faberi (SETFA) [5]; 100% in assay [6]; 100% in [7]; 100% in [8]; 100% in assay [9]; 100% in assay [10].

(Values after patent US10375956B2, “Herbicidally active 2-(substituted-phenyl)-cyclopentane-1,3-dione compounds and derivatives thereof” (Syngenta Limited, priority 2013, dated 2019).)
